Tests used:
[1] = as described in U.S. Pat. No. 6,150,380; cited from earlier work
[2] = Long-term stability study of omeprazole Form B (polymorphic form by XRPD); format: physicochemical
Description: Omeprazole Form B prepared using a method similar to the one described in Example 1 was subjected to long-term stability studies. Each sample was packed in a clear polythene bag, filled with nitrogen, tied with a tag and kept in a black polythene bag along with silica pouch filled with nitrogen and then sealed. Finally, the above triple laminated bag along with silica pouch was sealed and stored in a HDPE drum. The color, moisture content, purity and the polymorphic form of the product was checked at intervals during storage. The results for compliance of polymorphic form are tabulated below, where “ND” means not detected by XRPD. 950 mg of Form B and 50 mg of Form A of Omeprazole were weighed and combined to form a weight ratio of Form B to Form A of 95:5. The mixture was ground three times in a mortar to get a uniform powder. [table] FIG. 6 is a scan for pure omeprazole Form B. FIG. 5 is the XRPD scan for the standard, containing 5% by weight of omeprazole Form A, and the scan of FIG. 6 has been superimposed for comparison.

Color, moisture content and purity of the product during storage ([2]; long-term stability storage)	Conversion into crystalline Form A during storage ([2]; storage in a container for 6 months at 40° C. and 60% relative humidity)	Structure (SMILES)	Hygroscopicity relative to omeprazole Form B [1]	Thermodynamic stability relative to omeprazole Form B [1]	Conversion into Form A [1]
–	–	COc1ccc2[nH]c([S+]([O-])Cc3ncc(C)c(OC)c3C)nc2c1 (centres unmarked) [omeprazole Form A, 5-Methoxy-2-[[(4-methoxy-3,5-dimethyl-2-pyridinyl)methyl]sulfinyl]-1H-benzimidazole]	less hygroscopic	thermodynamically more stable	–
remained substantially the same	does not convert into crystalline Form A	COc1ccc2[nH]c([S+]([O-])Cc3ncc(C)c(OC)c3C)nc2c1 (centres unmarked) [Omeprazole Form B, 5-Methoxy-2-[[(4-methoxy-3,5-dimethyl-2-pyridinyl)methyl]sulfinyl]-1H-benzimidazole]	–	–	can completely or partially convert into Form A

Reference: patent publication US20100183710A1, “OMEPRAZOLE FORM B” (priority 2005, published 2010)
